Measurements taken from US20240002393A1, “SUBSTITUTED BENZO[f][l ,2,4JTRIAZOL0[4,3-a][l ,4J[…] GABA A GAMMA! POSITIVE ALLOSTERIC MODULATORS” (Hoffmann-La Roche Inc., priority 2020, published 2024).
Several values for one entry are separate records, joined by “and”; a condition that tells them apart may be missing. Identical values can stand only once.

How the values were obtained:
[1] = molecular target: human GABAA α1β3γ2 receptor (Homo sapiens (Human), UniProt P14867+P18507); experiment: Radioligand binding assay, [3H]Flumazenil competition, γ2-containing GABAA subtypes; conditions: HEK293F membranes, [3H]Flumazenil 1 nM, mean of two determinations; read-out: Ki h-GABAA α1β3γ2
In short: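 Competition with [3H]Flumazenil (81.1 Ci/mmol) for binding to HEK293F cells transiently expressing human α1β3γ2 receptors, prepared in Mannitol Buffer pH 7.2-7.4. Incubated 1 hour at 4° C to equilibrium, filtered, washed with ice-cold 50 mM Tris pH 7.5, counted by liquid scintillation. Ki values are means of two determinations.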

[2] = molecular target: human GABAA α2β2γ1 receptor (Homo sapiens (Human), UniProt P47869+Q8N1C3); experiment: Radioligand binding assay, [3H]RO7239181 competition, γ1-containing GABAA subtypes; conditions: for Ki: HEK293F membranes, [3H]RO7239181 20-30 nM, mean of two determinations, read-out: Ki h-GABAA α2β2γ1; for γ2/γ1 Selectivity Ratio: Ki α1β3γ2 (nM)/Ki α2β2γ1 (nM); for LogSel: Log[Ki α1β3γ2 (nM)/Ki α2β2γ1 (nM)]
[3] = molecular target: human GABAA α1β2γ1 receptor (Homo sapiens (Human), UniProt P14867+Q8N1C3); experiment: as above; conditions: HEK293F membranes, [3H]RO7239181 20-30 nM, mean of two determinations
[4] = molecular target: human GABAA α5β2γ1 receptor (Homo sapiens (Human), UniProt P31644+Q8N1C3); experiment: as above; conditions: HEK293F membranes, mean of two determinations
Protocol: The affinity of compounds at GABAA γ1 subunit-containing receptors was measured by competition for [^3H]RO7239181 (67.3 Ci/mmol; Roche) binding to membranes from HEK293F cells (ThermoFisher R79007) expressing human (transiently transfected) receptors of composition α5β2γ1, α2β2γ1, α1β2γ1. For better protein expression of the α2 subunit-containing receptors, the 28 amino acid long signal peptide (Met1 to Ala28) of the human GABAA α2 subunit was substituted by the 31 amino acid long signal peptide (Met1 to Ser31) of human GABAA α5 subunit.
Harvested pellets from HEK293F cells expressing the different GABAA receptor subtypes were resuspended in Mannitol Buffer pH 7.2-7.4 (Mannitol 0.29M, Triethylamine 10 mM, Acetic acid 10 mM, EDTA 1 mM plus protease inhibitors (20 tablets Complete, Roche Diagnostics Cat. No. 05 056 489 001 per liter)), washed two times and then resuspended at 1:10 to 1:15 dilution in the same buffer. Cell disruption was performed by stirring the suspension in a Parr vessel #4637 at 435 psi for 15 minutes, and then the suspensions were centrifuged at 1000×g for 15 minutes at 4° C. (Beckman Avanti J-HC; rotor JS)-4.2). The supernatant (S1) was transferred in a 21 Schott flask and the pellet (P1) was resuspended with Mannitol Buffer up to 175 ml. The resuspended pellet was transferred into a 250 ml Corning centrifugal beaker and centrifuged at 1500×g for 10 minutes at 4° C. (Beckman Avanti J-HC; rotor JS)-4.2). The supernatant (S1) was then transferred in the 21 Schott flask and the pellet was discarded. The supernatants (S1) were centrifuged in 500 ml Beckman polypropylene centrifugal beaker at 15,000×g for 30 minutes at 4° C. (Beckman Avanti J-20 XP; rotor JLA-10.500). The pellet (P2) was resuspended with Mannitol Buffer 1:1 and frozen at −80° C. The supernatant (S2) was centrifuged in 100 ml Beckman polypropylene centrifugal tubes at 48000×g for 50 minutes at […] (Beckman Avanti J-20 XP; rotor JA-18). The supernatant (S3) was discarded and the pellet (P3) was resuspended with 1:1 Mannitol Buffer. The P2 and P3 protein concentration was determined with the BIORAD Standard assay method with bovine serum albumin as standard and measured on the NANO-Drop 1000. The membrane suspension was aliquots (500 μl per tube) and stored at −80° C. until required.
Membrane homogenates were resuspended and polytronised (Polytron PT1200E Kinematica AG) in Potassium Phosphate 10 mM, KCl 100 mM binding buffer at pH 7.4 to a final assay concentration determined with a previous experiment.
Radioligand binding assays were carried out in a volume of 200 µL (96-well plates) which contained 100 μL of cell membranes, [^3H]RO7239181 at a concentration of 1.5 nM (α5β2γ1) or 20-30 nM (α1β2γ1, 2β2γ1) and the test compound in the range of [0.3-10000]×10^−9 M. Nonspecific binding was defined by 10×10^−6 (α5β2γ1) and 30×10^−6 M RO7235136 and typically represented less than 5% (α5β2γ1) and less than 20% (α1β2γ1, α2β2γ1) of the total binding. Assays were incubated to equilibrium for 1 hour at 4° C. and then, membranes were filtered onto unifilter (96-well white microplate with bonded GF/C filters preincubated 20-50 minutes in 0.3% Polyethylenimine) with a Filtermate 196 harvester (Packard BioScience) and washed 4 times with cold Potassium Phosphate 10 mM pH 7.4, KCl 100 mM binding buffer. After drying, filter-retained radioactivity was detected by liquid scintillation counting. K, values were calculated using Excel-Fit (Microsoft) and are the means of two determinations.
Representative test results, obtained by the above described assay measuring binding affinity to HEK293 cells expressing human (h) receptors, are shown in the Table 1.

Structure (SMILES) | Ki [1] | Ki [2] | γ2/γ1 Selectivity Ratio [2] | LogSel [2] | Ki [3] | Ki [4]
Cc1nnc2n1-c1ccc(Br)c(Cl)c1C(c1ncccc1F)=N[C@H]2C [Example 85, (4S)-8-bromo-7-chloro-6-(3-fluoro-2-pyridyl)-1,4-dimethyl-4H-[1,2,4]triazolo[4,3-a][1,4]benzodiazepine] | 0.705 µM | 0.053 µM | 13.3 | 1.12 | 0.0636 µM | 0.0033 µM
Cc1ccc(-c2nnc3n2-c2ccc(Cl)c(Cl)c2C(c2c(F)cccc2F)=N[C@H]3C)nn1 [Example 86, (4S)-7,8-dichloro-6-(2,6-difluorophenyl)-4-methyl-1-(6-methylpyridazin-3-yl)-4H-[1,2,4]triazolo[4,3-a][1,4]benzodiazepine] | 0.86 µM | 0.0044 µM | 195.1 and 195 | 2.29 and 2.3 | 0.0059 µM | 0.0014 µM
Cc1cc(-c2nnc3n2-c2ccc(Cl)c(Cl)c2C(c2c(F)cccc2F)=N[C@H]3C)on1 [Example 87, 5-[(4S)-7,8-dichloro-6-(2,6-difluorophenyl)-4-methyl-4H-[1,2,4]triazolo[4,3-a][1,4]benzodiazepin-1-yl]-3-methyl-isoxazole] | 0.531 µM | 0.0075 µM | 70.9 | 1.85 | 0.008 µM | 0.0021 µM
Cc1ccc(-c2nnc3n2-c2ccc(Cl)c(Br)c2C(c2c(F)cccc2F)=N[C@H]3C)nn1 [Example 88, (4S)-7-bromo-8-chloro-6-(2,6-difluorophenyl)-4-methyl-1-(6-methylpyridazin-3-yl)-4H-[1,2,4]triazolo[4,3-a][1,4]benzodiazepine] | 1.45 µM | 0.0109 µM | 133.6 | 2.13 | 0.0345 µM | 0.0036 µM
C[C@@H]1N=C(c2c(F)cccc2F)c2c(ccc(Cl)c2Br)-n2c1n[nH]c2=O [Example 89, (4S)-7-bromo-8-chloro-6-(2,6-difluorophenyl)-4-methyl-2,4-dihydro-[1,2,4]triazolo[4,3-a][1,4]benzodiazepin-1-one] | 1.46 µM | 0.077 µM | 19.0 | 1.28 | 0.106 µM | 0.0043 µM
Cc1nnc2n1-c1ccc(C(F)(F)F)c(Cl)c1C(c1c(F)cccc1F)=N[C@H]2C [Example 92, (4S)-7-chloro-6-(2,6-difluorophenyl)-1,4-dimethyl-8-(trifluoromethyl)-4H-[1,2,4]triazolo[4,3-a][1,4]benzodiazepine] | 2.23 µM | 0.0219 µM | 102.0 | 2.01 | 0.0483 µM | 0.0018 µM
Cc1nnc2n1-c1ccc(C(C)(F)F)c(Cl)c1C(c1c(F)cccc1F)=N[C@H]2C [Example 93, (4S)-7-chloro-8-(1,1-difluoroethyl)-6-(2,6-difluorophenyl)-1,4-dimethyl-4H-[1,2,4]triazolo[4,3-a][1,4]benzodiazepine] | 5.96 µM | 0.0391 µM | 152.1 | 2.18 | 0.0851 µM | 0.0031 µM
Cc1cc(-c2nnc3n2-c2ccc(Cl)c(Cl)c2C(c2c(F)cccc2F)=N[C@H]3C)ncn1 [Example 94, (4S)-7,8-dichloro-6-(2,6-difluorophenyl)-4-methyl-1-(6-methylpyrimidin-4-yl)-4H-[1,2,4]triazolo[4,3-a][1,4]benzodiazepine] | 0.609 µM | 0.008 µM | 76.4 | 1.88 | 0.0103 µM | 0.002 µM
Cc1nccc(-c2nnc3n2-c2ccc(Cl)c(Cl)c2C(c2c(F)cccc2F)=N[C@H]3C)n1 [Example 95, (4S)-7,8-dichloro-6-(2,6-difluorophenyl)-4-methyl-1-(2-methylpyrimidin-4-yl)-4H-[1,2,4]triazolo[4,3-a][1,4]benzodiazepine] | 0.466 µM | 0.0142 µM | 32.7 | 1.51 | 0.0247 µM | 0.0015 µM
Cc1cc(-c2nnc3n2-c2ccc(Cl)c(Cl)c2C(c2c(F)cccc2F)=N[C@H]3C)nc(C)n1 [Example 96, (4S)-7,8-dichloro-6-(2,6-difluorophenyl)-1-(2,6-dimethylpyrimidin-4-yl)-4-methyl-4H-[1,2,4]triazolo[4,3-a][1,4]benzodiazepine] | 0.473 µM | 0.0139 µM | 34.1 | 1.53 | 0.0279 µM | 0.003 µM
Cc1ccc2c(c1Cl)C(c1c(F)cccc1F)=N[C@@H](C)c1nnc(C)n1-2 [Example 97, (4S)-7-chloro-6-(2,6-difluorophenyl)-1,4,8-trimethyl-4H-[1,2,4]triazolo[4,3-a][1,4]benzodiazepine] | 0.425 µM | 0.0271 µM | 15.7 | 1.19 | 0.0336 µM | 0.0025 µM
CC[C@@H]1N=C(c2c(F)cccc2F)c2c(ccc(Br)c2Cl)-n2c(C)nnc21 [Example 98, (4S)-8-bromo-7-chloro-6-(2,6-difluorophenyl)-4-ethyl-1-methyl-4H-[1,2,4]triazolo[4,3-a][1,4]benzodiazepine] | 1.46 µM | 0.072 µM | 20.3 | 1.31 | 0.0576 µM | 0.0044 µM
Cc1nnc2n1-c1ccc(C(F)F)c(Cl)c1C(c1c(F)cccc1F)=N[C@H]2C [Example 99, (4S)-7-chloro-8-(difluoromethyl)-6-(2,6-difluorophenyl)-1,4-dimethyl-4H-[1,2,4]triazolo[4,3-a][1,4]benzodiazepine] | 2.02 µM | 0.0554 µM | 36.4 | 1.56 | 0.0634 µM | 0.0032 µM
COC[C@@H]1N=C(c2c(F)cccc2F)c2c(ccc(Br)c2Cl)-n2c(C)nnc21 [Example 100, (4R)-8-bromo-7-chloro-6-(2,6-difluorophenyl)-4-(methoxymethyl)-1-methyl-4H-[1,2,4]triazolo[4,3-a][1,4]benzodiazepine] | 0.288 µM | 0.0198 µM | 14.6 | 1.16 | 0.034 µM | 0.0034 µM
Cc1nnc2n1-c1ccc(Br)c(Cl)c1C(c1c(F)cccc1F)=N[C@H]2CO [Example 101, [(4R)-8-bromo-7-chloro-6-(2,6-difluorophenyl)-1-methyl-4H-[1,2,4]triazolo[4,3-a][1,4]benzodiazepin-4-yl]methanol] | 0.495 µM | 0.0264 µM | 18.8 | 1.27 | 0.0143 µM | 0.001 µM
